Experimental data as given in patent US5741476A, “Polyhydric phenol compounds” (Mallinckrodt Medical, Inc., priority 1992, dated 1998).
Where two headings read alike, the source gives them in different places.

Tests used:
[1] = in vivo distribution in rats
Description: The in vivo distribution in rats is determined by injecting approx. 10 μCi of the compound to be evaluated into the tail vein of the test animals. The test animals are sacrificed at appropriate time intervals after injection and the radioactivity of the organs of interest is measured by gamma scintillation counting.

erythrocytes = test: binding of 3-125I-phloretin to erythrocytes; parameters: species or system human
Description: (§1) In order to be able to compare the binding to cancer cells with the binding to normal cells, the following experiments are carried out. Binding to certain cancer cells, viz. YAK1 mice lymphoma cells (10^6 cells/ml incubation medium) is compared with binding to erythrocytes of a young healthy person (10^6 cells/ml incubation medium), because erythocytes are typical reference cells for glucose transport studies.
(§2) The incubation media are respectively:
(§3) RPMI-buffer pH=8; 11 mM in glucose, and
(§4) RPMI buffer/0.9% NaCl: 1/1.
(§5) Each 1 ml essay contains 5% of foetal calf serum and is spiked (50 μl) with 3-^125 I-phloretin (initial activity is measured).
(§6) After 15 min incubation at 37° C., the suspension is centrifuged and the precipitate is resuspended with 1 ml cold buffer which is discarded after a second centrifugation. The final radioactive precipitate is suspended in 1 ml water and measured. The bound radioactivity is related to the initial activity.
Saturation binding of 3-^125 I-phloretin to 5.10^6 erythrocytes is performed in RPMI-buffer and Tris-buffer of pH 8. The binding experiments are performed at pH 8, because this is the pH of the RPMI buffer needed for optimum YAK1 cells growth. Incubation for 15 min at 37° C. Inhibition is studied by pre-incubation (15 min, 37° C.) of the erythrocytes in buffer containing 2.10^-4 M 3-Br-phloretin. After centrifugation, the Br-phloretin-containing solution is discarded and the precipitate washed with ice-cooled buffer. After a second centrifugation, the supernatant is discarded and the cells are resuspended in buffer containing 3^125 I-phloretin. After incubation for 15 min at 37° C., the same above procedure is applied. Phloretin is a weak acid (pK is approx. 7.3); only the uncharged (non-dissociated) form inhibits red cell glucose transport (Jennings et al., see above). Therefore the values mentioned hereinafter are corrected for dissociation.
When starting from small amounts (0.1×10^-10 M) N.C.A. 3-^125 I-phloretin up to higher concentrations and C.A. conditions (3-Br-phloretin used as analogue), two types of binding are observed: […]

YAK1 mice lymphoma cells = test: binding of 3-125I-phloretin to YAK1 lymphoma cells
Description: as §1, §2, §3, §4, §5, §6

hexokinase = test: hexokinase-model: inhibition of hexokinase-catalysed 6-phosphorilation of glucose; assay type: biochemical
From the text: In vitro evaluation of 3-halo-phloretin compounds using the "hexokinase-model"
The "hexokinase-model" is used as a model system for the glucose-transport proteins, which play a paramount role in the glucose metabolism.
The mechanism of the glucose--glucosetransportprotein interaction and following transport through the cell membrane of glucose, as described in literature (Scientific American, January 1992, p. 32-39; Biochemistry, Vol. 28, No. 20, 1989, p. 8221-8227), and the induced-fit model described for glucose 6-phosphorilation by hexokinase (Cell Biology, 1989) show a certain analogy which let to assume, that the interaction between a potential glucose transport inhibitor with hexokinase can be a valuable in vitro model if this inhibition is competitive for glucose.
The substitution of halogen such as a bromine or iodine atom on the 3-position of the 4-hydroxyl-phenylpropion part of phloretin increases the inhibition potency as shown as follows:
Inhibition of hexokinase catalyses 6-phosphorilation of glucose by deoxyglucose, phloretin and 3-bromo-phloretin.

[2] = binding in human whole blood (RB/plasma distribution, reversibility); assay type: in vitro ADME; conditions: for blood plasma ratio at 0.25 h / blood plasma ratio: human; for blood plasma ratio at 0.25 h: 37° C., 15 min, read-out: RB/plasma ratio after re-equilibration
Description: In vitro experiments: binding in human whole blood
Jennings et al. [J. Gen. Phys., 1967, 67, 381] have reported the binding of phloretin to whole red blood cells. Their results let to assume that phloretin should enter the erythrocytes and bind to haemoglobine. This should mean that a phloretin-based radiotracer should not be suitable for in vivo use. Therefore the reversibility of the binding is checked. For this purpose 3-^123 I-phloretin is added to whole heparinised blood. This is centrifuged, yielding serum S-*I and red blood portion RB-*I. S-*I and non-radioactive RB (1/1) and respectively non-radioactive S and RB-*I (1/1) are incubated at 37° C. for 15 min and centrifuged. The radioactivity of all the weighed aliquots is measured in a well NaI(T1) detector.

[3] = weak acid; cited from earlier work

Structure (SMILES): O=C(CCc1ccc(O)c(I)c1)c1c(O)cc(O)cc1O [3-*I-phloretin]
- saturability of uptake in heart and muscle ([1]; decreased uptake in the presence of Br-phloretin): apparently saturable
- uptake in the lungs (L/B) ([1]; i.v. tail vein, N.C.A. and C.A.): high uptake in the lungs

Structure (SMILES): O=C(CCc1ccc(O)c(Br)c1)c1c(O)cc(O)cc1O [3-Br--phloretin, 3-bromophloretin]
- bound/free value of 3-125I-phloretin (erythrocytes; erythrocytes pre-incubated with 2×10^-4 M 3-Br-phloretin, blank 0.193, average of 5 experiments): 0.081
- inhibition of 3-125I-phloretin binding (erythrocytes; pre-incubation with 2×10^-4 M 3-Br-phloretin, compared with blank): 58%
- decreased binding of 3-125I-phloretin (YAK1 mice lymphoma cells; co-incubation of 3-Br-phloretin, YAK1 cells, 15 min): 30%

Structure (SMILES): O=C(CCc1ccc(O)c(I)c1)c1c(O)cc(O)cc1O [3-I--phloretin, 3-I-phloretin]
- potency as hexokinase inhibitor relative to the original phloretin (hexokinase; versus phloretin): approx. 2 times

Structure (SMILES): O=C(CCc1ccc(O)c([125I])c1)c1c(O)cc(O)cc1O [3-^125 I-phloretin]
- reversibility of binding to plasma-proteins and RB [2]: bound reversibly
- blood plasma ratio at 0.25 h ([2]; N.C.A. radioactivity bound to RB, re-equilibrated with non-radioactive plasma): 0.15
- blood plasma ratio at 0.25 h ([2]; N.C.A. radioactivity bound to plasma, re-equilibrated with non-radioactive RB): 0.13
- blood plasma ratio ([2]; in the presence of non-radioactive Br-phloretin or phloretin): 0.32
- blood plasma ratio ([2]; non-carrier-added (N.C.A.) conditions): 0.215
- bound/free ratio (erythrocytes; N.C.A., 10^6 erythrocytes, 15 min 37° C., average of at least 20 experiments): 0.021
- influence of glucose on binding (erythrocytes; presence of 3.10^-2 -5.10^-3 M glucose): hardly influences the binding
- Bmax (erythrocytes; saturation binding 0.1 to 1.2 10^-10 M, Scatchard plot, pH 8): 4.7×10^-15 mol/10^6 erythrocytee
- Kd (erythrocytes; saturation binding 0.1 to 1.2 10^-10 M, Scatchard plot, pH 8, 15 min 37° C., corrected for dissociation, read-out: apparent Kd): 80 pM
- bound/free ratio (YAK1 mice lymphoma cells; N.C.A., 10^6 YAK1 cells, 15 min 37° C., average of at least 20 experiments): 0.048
- increase of uptake in YAK1 lymphoma cancer cells as compared to erythrocytes (YAK1 mice lymphoma cells; YAK1 versus erythrocytes): > 2 factor

Structure (SMILES): O=C(CCc1ccc(O)cc1)c1c(O)cc(O)cc1O [phloretin, reference compound]
- type of inhibition of hexokinase activity (hexokinase; Lineweaver-Burck plots, versus glucose): competitive
- pK [3]: approx. 7.3
